For one experiment, the system named is homocysteine. The experiment can be described thus: Clinical investigation: homocysteine levels after six months versus baseline. In kind it is in vivo, human. As to conditions: postmenopausal women, six months vs patient's baseline, p<0.05. On the procedure:
(§1) A clinical investigation was conducted which included 390 women (45-72 years old), who were an average of ten years postmenopausal. These patients were randomly assigned to the following treatment protocol: raloxifene hydrochloride at 60 mg per day via oral administration (cf. Formulation 2, supra), raloxifene at 120 mg per day, or HRT therapy. Homocysteine and C-reactive protein baseline levels were determined, prior to the initiation of therapy. Methods for such determinations are well known and can be found in the references cited, supra. The study was conducted for a period of six months. The levels of homocysteine and C-reactive protein in each patient were compared at the end of six months with that patient's baseline. Results were analyzed by variance. Raloxifene at 60 mg per day lowered levels of homocysteine by 8% (p<0.05) and C-reactive protein by 4% (NS). Raloxifene at 120 mg per day lowered homocysteine by 5.7% (p<0.05) and C-reactive protien by −3.9 (NS).

Another experiment has as its system C-reactive protein. As to the kind of experiment: Clinical investigation: C-reactive protein levels after six months versus baseline. The class given is in vivo, human. The arrangement: lowered C-reactive protein: unit not given here. The settings on record: postmenopausal women, six months vs patient's baseline, NS. On the procedure:
as §1

Data on one compound can be found in patent US6353003B1, “Method for reducing levels of homocysteine and C-reactive protein” (Eli Lilly and Company, priority 1998, dated 2002).

Take `Cl.O=C(c1ccc(OCCN2CCCCC2)cc1)c1c(-c2ccc(O)cc2)sc2cc(O)ccc12` [Raloxifene, [2-(4-hydroxyphenyl)-6-hydroxybenzo [b]thien-3-yl][4-[2-(1-piperidinyl)ethoxy]phenyl]methanone hydrochloride]: the “lowered levels of homocysteine” value in the experiment on homocysteine (60 mg per day oral) came to 8%. Also, the lowered homocysteine with homocysteine (120 mg per day) came out at 5.7%. In the experiment on C-reactive protein (60 mg per day oral), the “lowered levels of C-reactive protein” value worked out at 4%. Besides, the “lowered C-reactive protein” value in the experiment with C-reactive protein (120 mg per day) is −3.9.
